In patent US7964531B2, “3-phenoxy-4-pyridazinol derivatives and herbicidal composition containing the same” (Mitsui Chemicals Agro, Inc., priority 2001, dated 2011) one finds melting point data, which are given here for 50 compounds.

As to `CC(C)c1ccc(C2CC2)c(Oc2nnc(Cl)cc2O)c1` [Compound No. 664, 6-Chloro-3-(2-cyclopropyl-5-isopropylphenoxy)-4-pyridazinol], the melting point – broadly, the temperature of the solid-liquid transition – was in the range of 211 to 212 °C.

`Cc1cccc(C2CC2)c1Oc1nnc(Cl)cc1OC(=O)C(C)(C)C` [Compound No. 1207, 6-Chloro-3-(2-cyclopropyl-6-methylphenoxy)-4-pyridazinyl pivalate]: the melting point lay in the range of 84 to 87 °C.

`COc1ccc(C)cc1Oc1nnc(Cl)cc1O` [Compound No. 704, 6-Chloro-3-(2-methoxy-5-methylphenoxy)-4-pyridazinol] displayed a melting point of 126 to 134 °C.

`C[Si](C)(C)c1ccc(Oc2nnc(Cl)cc2OC(=O)c2ccccc2)cc1`: the melting point is 100 to 102 °C.

As for `COc1cccc(Oc2nnc(Cl)cc2O)c1C1CC1` [Compound No. 478, 6-Chloro-3-(2-cyclopropyl-3-methoxyphenoxy)-4-pyridazinol], the melting point was 184 to 185 °C.

Compound `CCc1cccc(CC)c1Oc1nnc(Cl)cc1O` [Compound No. 846, 6-Chloro-3-(2,6-diethylphenoxy)-4-pyridazinol] had a melting point of 181 to 185 °C.

Take `Oc1cc(Cl)nnc1Oc1ccccc1-c1ccsc1` [Compound No. 361, 6-Chloro-3-[2-(3-thienyl)phenoxy]-4-pyridazinol]: the melting point fell in the range of 207 to 209 °C.

Take `CC(C)(C)c1ccc(Oc2nnc(Cl)cc2O)cc1` [Compound No. 433, 3-(4-tert-Butylphenoxy)-6-chloro-4-pyridazinol]: the melting point was 224 to 225 °C.

In turn, `Cc1ccc(Br)c(Oc2nnc(Cl)cc2O)c1C` [Compound No. 1058, 3-(6-Bromo-2,3-dimethylphenoxy)-6-chloro-4-pyridazinol] yielded a melting point of 263 to 268 °C.

The compound `CC(C)c1cccc(F)c1Oc1nnc(Cl)cc1O` [Compound No. 717, 6-Chloro-3-(2-fluoro-6-isopropylphenoxy)-4-pyridazinol] gave a melting point of 215 to 220 °C.

As for `Cc1cccc(C2CC2)c1Oc1nnc(Cl)cc1OC(=O)CC(C)(C)C` [Compound No. 2662, 6-Chloro-3-(2-cyclopropyl-6-methylphenoxy)-4-pyridazinyl 3,3-dimethylbutanoate], the melting point is 91 to 92 °C.

The compound `CN(C)C(=O)Oc1cc(Cl)nnc1Oc1ccccc1C1CC1` returned a melting point of 137 to 138 °C.

Regarding `Cc1cc(Cl)ccc1Oc1nnc(Cl)cc1O` [Compound No. 558, 6-Chloro-3-(4-chloro-2-methylphenoxy)-4-pyridazinol], the melting point was 235 to 235.5 °C.

`Cc1cccc(C2CC2)c1Oc1nnc(Cl)cc1OC(=O)N(CCCl)CCCl` showed a melting point of 166 to 167 °C.

Compound `CC=Cc1ccc(F)cc1Oc1nnc(Cl)cc1O` [Compound No. 679, 6-Chloro-3-[5-fluoro-2-(1-propenyl)phenoxy]-4-pyridazinol] returned a melting point of 210 to 217 °C.

For the compound `Cc1nc2c(Oc3nnc(Cl)cc3O)cccc2o1` [Compound No. 538, 6-Chloro-3-[(2-methyl-1,3-benzoxazol-4-yl)oxy]-4-pyridazinol], the melting point lay within 221 to 222 °C.

For the compound `Cc1cccc(C2CC2)c1Oc1nnc(Cl)cc1OC(=O)c1cc(Cl)cc(Cl)c1` [Compound No. 3226, 6-Chloro-3-(2-cyclopropyl-6-methylphenoxy)-4-pyridazinyl 3,5-dichlorobenzoate], the melting point was 168 to 174 °C.

`Cc1cc(O)c(Oc2ccccc2C(C)C)nn1` [Compound No. 2418, 3-(2-Isopropylphenoxy)-6-methyl-4-pyridazinol] gave a melting point of 259 to 260 °C.

Compound `Cc1ccc(S(=O)(=O)Oc2cc(Cl)nnc2Oc2ccccc2C(C)(C)C)cc1` [Compound No. 2224, 3-(2-tert-Butylphenoxy)-6-chloro-4-pyridazinyl 4-methylbenzenesulfonate] yielded a melting point of 98 to 99 °C.

As for `Cc1ccccc1Oc1nnc(Cl)cc1OC(=O)N(C)C`, the melting point lay within 107 to 109 °C.

With `C=CCc1cccc(CC=C)c1Oc1nnc(Cl)cc1O` [Compound No. 982, 6-Chloro-3-(2,6-diallylphenoxy)-4-pyridazinol], the melting point was 131 to 135 °C.

As for `CC(C)Cc1ccccc1Oc1nnc(Cl)cc1O` [Compound No. 134, 6-Chloro-3-(2-isobutylphenoxy)-4-pyridazinol], the melting point fell in the range of 151.5 to 152.5 °C.

Consider `C=C(C)c1cccc(C)c1Oc1nnc(Cl)cc1O` [Compound No. 2577, 6-Chloro-3-(2-isopropenyl-6-methylphenoxy)-4-pyridazinol], for which the melting point lay in the range of 183 to 186 °C.

`Cc1ccc(C)c(Oc2nnc(Cl)cc2O)c1Br` [Compound No. 1040, 3-(2-Bromo-3,6-dimethylphenoxy)-6-chloro-4-pyridazinol]: the melting point lay within 255 to 257 °C.

For `Cc1cc(C)c(C2CC2)c(Oc2nnc(Cl)cc2O)c1` [Compound No. 1023, 6-Chloro-3-(2-cyclopropyl-3,5-dimethylphenoxy)-4-pyridazinol], the melting point fell in the range of 200 to 203 °C.

`Oc1cc(Cl)nnc1Oc1cccc(F)c1F` [Compound No. 437, 6-Chloro-3-(2,3-difluorophenoxy)-4-pyridazinol]: the melting point was in the range of 188 to 193 °C.

The compound `Cc1cc(F)ccc1Oc1nnc(Cl)cc1O` [Compound No. 557, 6-Chloro-3-(4-fluoro-2-methylphenoxy)-4-pyridazinol] showed a melting point of 249 to 250 °C.

On to `CCc1cccc(Cl)c1Oc1nnc(Cl)cc1O` [Compound No. 737, 6-Chloro-3-(2-chloro-6-ethylphenoxy)-4-pyridazinol], for which the melting point lay within 194 to 195 °C.

`COc1cccc(OC)c1Oc1nnc(Cl)cc1O` [Compound No. 987, 6-Chloro-3-(2,6-dimethoxyphenoxy)-4-pyridazinol] came in with a melting point of 199 to 201 °C.

With `Oc1cc(Cl)nnc1Oc1ccccc1F` [Compound No. 124, 6-Chloro-3-(2-fluorophenoxy)-4-pyridazinol], the melting point was 210 to 212 °C.

Turning to `Oc1cc(Cl)nnc1Oc1ccccc1C1CC1(F)Cl` (centres unmarked) [Compound No. 2519, 6-Chloro-3-[2-(2-chloro-2-fluorocyclopropyl)phenoxy]-4-pyridazinol], the melting point lay within 175 to 177 °C.

For the compound `Oc1cc(Cl)nnc1Oc1ccccc1C1CCCCC1` [Compound No. 293, 6-Chloro-3-(2-cyclohexylphenoxy)-4-pyridazinol], the melting point lay in the range of 158 to 159 °C.

With `Oc1cc(Cl)nnc1Oc1ccccc1Cl` [Compound No. 125, 6-Chloro-3-(2-chlorophenoxy)-4-pyridazinol], the melting point lay in the range of 208 to 212 °C.

`Oc1cc(Cl)nnc1Oc1ccc(F)cc1` [Compound No. 426, 6-Chloro-3-(4-fluorophenoxy)-4-pyridazinol] showed a melting point of 241 to 248 °C.

Turning to `COc1cccc(C2CC2)c1Oc1nnc(Cl)cc1O` [Compound No. 964, 6-Chloro-3-(2-cyclopropyl-6-methoxyphenoxy)-4-pyridazinol], the melting point was 194 to 199 °C.

For `Cc1cccc(C2CC2)c1Oc1nnc(Cl)cc1OC(=O)N(C)C`, the melting point was 136 to 138 °C.

Consider `Oc1cc(Cl)nnc1Oc1ccccc1C1CC1(Br)Br` (centres unmarked) [Compound No. 266, 6-Chloro-3-[2-(2,2-dibromocyclopropyl)phenoxy]-4-pyridazinol], for which the melting point was 208 to 210 °C (dec.).

For the compound `Cc1ccccc1Oc1nnccc1O` [Compound No. 5, 3-(2-Methylphenoxy)-4-pyridazinol], the melting point fell in the range of 169 to 171 °C.

The compound `Cc1ccc2occc2c1Oc1nnc(Cl)cc1O` [Compound No. 1109, 6-Chloro-3-[(5-methyl-1-benzofuran-4-yl)oxy]-4-pyridazinol] had a melting point of 222 to 225 °C.

`Cc1cc(C)c(Oc2nnc(Cl)cc2O)c(C)c1` [Compound No. 1122, 6-Chloro-3-(2,4,6-trimethylphenoxy)-4-pyridazinol]: the melting point lay within 235 to 239 °C.

Regarding `Oc1cccc(Oc2nnc(Cl)cc2O)c1` [Compound No. 2544, 6-Chloro-3-(3-hydroxyphenoxy)-4-pyridazinol], the melting point fell in the range of 248 to 251 °C.

Take `C=Cc1cc(O)c(Oc2ccccc2C)nn1` [Compound No. 2436, 3-(2-Methylphenoxy)-6-vinyl-4-pyridazinol]: the melting point is 195 to 197 °C.

`Cc1ccccc1Oc1nnc(Cl)c(Oc2ccccc2C)c1O` [Compound No. 2395, 6-Chloro-3,5-bis(2-methylphenoxy)-4-pyridazinol] registered a melting point of 110 to 115 °C.

With `C=C(C)Cc1cccc(Cl)c1Oc1nnc(Cl)cc1O` [Compound No. 746, 6-Chloro-3-[2-chloro-6-(2-methyl-2-propenyl)phenoxy]-4-pyridazinol], the melting point lay in the range of 198 to 200 °C.

In the case of `CC(C)(C)c1ccc(C(C)(C)C)c(Oc2nnc(Cl)cc2O)c1` [Compound No. 653, 6-Chloro-3-(2,5-di-tert-butylphenoxy)-4-pyridazinol], the melting point fell in the range of 249 to 258 °C.

Take `Cc1cccc(Br)c1Oc1nnc(Cl)cc1O` [Compound No. 758, 3-(2-Bromo-6-methylphenoxy)-6-chloro-4-pyridazinol]: the melting point lay within 242 to 243 °C.

`Cc1cccc(C2CC2)c1Oc1nnc(Cl)cc1OC(=O)c1ccc(C(F)(F)F)cc1` [Compound No. 2988, 6-Chloro-3-(2-cyclopropyl-6-methylphenoxy)-4-pyridazinyl 4-(trifluoromethyl)benzoate] came in with a melting point of 127 to 128 °C.

The compound `Cc1cccc(C(C)C)c1Oc1nnc(Cl)cc1O` [Compound No. 803, 6-Chloro-3-(2-isopropyl-6-methylphenoxy)-4-pyridazinol] registered a melting point of 215 to 220 °C.

On to `Cc1cccc(C2CC2(Cl)Cl)c1Oc1nnc(Cl)cc1O` (centres unmarked) [Compound No. 827, 6-Chloro-3-[2-(2,2-dichlorocyclopropyl)-6-methylphenoxy]-4-pyridazinol], for which the melting point lay within 213 to 215 °C.

In the case of `Oc1cc(Cl)nnc1Oc1ccccc1C1CC1(F)F` (centres unmarked) [Compound No. 264, 6-Chloro-3-[2-(2,2-difluorocyclopropyl)phenoxy]-4-pyridazinol], the melting point is 215 to 216 °C.
